The text below walks through data of paper PMC9866588, “Novel 7-Chloro-4-aminoquinoline-benzimidazole Hybrids as Inhibitors of Cancer Cells Growth: Synthesis, Antiproliferative Activity, in Silico ADME Predictions, and Docking” (Molecules, 2023).

Read-outs that look alike come from different tables or passages of the source.

One data set concerns THP-1 cells. As to the kind of experiment: Flow cytometry analysis of cell cycle, THP-1. It is filed as cell-based, human. The settings on record: THP-1, 5 μM, 24 h. How it is done:
(§1) To analyze the effects of the selected compounds (5d, 8d, and 12d) on the cell cycle of the HuT78 and THP-1 cells, the cells were seeded in 6-well plates (5 × 10^5 cells per well) and treated for 24 h with the selected compounds 5d and 12d (5 μM). The cells were then collected and fixed in cold 70% ethanol. The fixed samples were stained with 15 µg/mL of propidium iodide (PI) at room temperature and analyzed by flow cytometry (FACS Canto II, BD Biosciences). The results were analyzed using FlowLogic software.
(§2) One-way ANOVA analysis of variance was performed in the MedCalc statistical program for the analysis of the cell cycle. p-values of less than 0.05 were considered to be statistically significant.
A general note: A flow cytometer gives signals particle by particle.

The test system of data set [1] is HeLa (human cervical adenocarcinoma) cells. As to the kind of experiment: MTT antiproliferative assay, HeLa. It is filed as cell-based. The settings on record: 72 h, mean ± SD of three independent experiments. How it is done:
(§3) The growth inhibition activity was assessed according to the slightly modified procedure performed at the National Cancer Institute, Developmental Therapeutics Program.
(§4) The examined compounds were dissolved in DMSO (1 × 10^−2 M). The experiments were carried out on seven human tumor cell lines and a normal cell line. The following cell lines were used: HeLa (human cervical adenocarcinoma; purchased from ATCC), CaCo-2 (human colorectal adenocarcinoma), MCF-7 (human breast adenocarcinoma), CCRF-CEM (human acute lymphoblastic leukemia), Hut78 (T-cell lymphoma), THP-1 (acute monocytic leukemia), Burkitt lymphoma (Raji), and MDCK1 (Madine–Darby canine kidney). The MDCK1 cells were used between 24 and 26 passages.
(§5) The adherent cells were cultured in Dulbecco’s modified Eagle medium—DMEM (Gibco, Termo Fisher Scientific Inc., Leicestershire, England, UK), supplemented with 10% heat-inactivated fetal bovine serum (FBS, Gibco, Termo Fisher Scientific Inc., Leicestershire, England, UK), 2 mM glutamine, and 100U/0.1mg penicillin/streptomycin. The cells in suspension were cultured in RPMI 1640 (Gibco, Termo Fisher Scientific Inc., Leicestershire, England, UK) medium, supplemented with 10% FBS (Gibco, Termo Fisher Scientific Inc., Leicestershire, England, UK), 2 mM glutamine, 1 mM sodium pyruvate, and 10 mM HEPES. The cells were grown in a humidified atmosphere under the conditions of 37 °C/5% of CO2 gas in the CO2 incubator (IGO 150 CELLlife^TM, JOUAN, Thermo Fisher Scientific, Waltham, MA, USA).
(§6) The adherent cells (HeLa, CaCo-2, MCF-7, and MDCK-1) were plated in 96-well flat bottom plates (Greiner, Frickenhausen, Austria) at a concentration of 2 × 10^4 cells/mL. The suspension cells (Raji, THP-1, CCRF-CEM and Hut78) were plated in 96-well microtiter plates (Sarstead, Newton, NC, USA) at a concentration of 1 × 10^5 cells/mL. Twenty-four hours later, the cells were treated with test agents in […] and incubated for a further 72 h. The working dilutions were freshly prepared on the day of testing. The solvent was also tested for eventual inhibitory activity by adjusting its concentration to be the same as in the working concentrations. After 72 h of incubation, the cell growth rate was evaluated by performing the MTT assay, which detects dehydrogenase activity in viable cells. For this purpose, upon completion of the incubation period, the growth medium was discarded and 50 μL of MTT was added to each well at a concentration of 5 mg/mL. After four hours of incubation at 37 °C, the water insoluble MTT-formazan crystals were dissolved in 150 μL of dimethyl-sulfoxide (DMSO) for the adherent cells and in 10% SDS with 0.01 mol/L HCl for the cells grown in suspension. The absorbance (OD, optical density) was measured on a microplate reader (iMark, BIO RAD, Hercules, CA, USA) at 595 nm.
(§7) The percentage of live cells was calculated as follows: % = OD (sample) − OD (background)/OD (control) − OD (background) × 100.
(§8) The optical density (OD) of the background for the adherent cells is the OD of the MTT solution and DMSO; the OD (background) for the suspension cells is the OD of the culture medium with MTT and 10% SDS with 0.01 mol/L HCl; the OD (control) is the OD of the cells grown without the tested compounds.
(§9) The calculation of the GI50 value curves and QC analysis was performed using the Excel tools and GraphPadPrism software (La Jolla, CA, USA), v. 5.03. Briefly, individual concentration effect curves are generated by plotting the logarithm of the concentration of the tested compounds (X) vs. the corresponding percent inhibition values (Y) using the least squares fit. The best-fit GI50 values are calculated using log (inhibitor) versus normalized response—variable slope equation, where Y Ľ 100/(1 ţ 10 ((LogIC50 _ X) × HillSlope)). The QC criteria parameters (Z0, S:B, R2, HillSlope) were checked for every GI50 curve.
(Formazan colour is commonly taken as a measure of viable cells.)

Data set [2] concerns Raji (Burkitt lymphoma) cells. The data set is described as follows: MTT antiproliferative assay, Raji. It is filed as cell-based, human. The settings on record: for GI50: Homo sapiens, Raji, 72 h, MTT, mean ± SD of three independent experiments. How it is done: as §3, §4, §5, §6, §7, §8, §9
The test system of data set [3] is MDCK1 (Madine–Darby canine kidney) cells. As to the kind of experiment: MTT antiproliferative assay, MDCK1. It is filed as cell-based. The settings on record: Canis lupus familiaris, MDCK1, 72 h, mean ± SD of three independent experiments. As for the experimental part: as §3, §4, §5, §6, §7, §8, §9
Data set [4] has as its system CaCo-2 (human colorectal adenocarcinoma) cells. As to the kind of experiment: MTT antiproliferative assay, CaCo-2. It is filed as cell-based. The following applies: 72 h, mean ± SD of three independent experiments. How it is done: as §3, §4, §5, §6, §7, §8, §9
Data set [5] relates to HuT78 cells. As to the kind of experiment: Flow cytometry analysis of cell cycle, HuT78. It is filed as cell-based, human. The settings on record: HuT78, 5 μM, 24 h. How it is done:
as §1, §2

Data set [6] relates to Hut78 (T-cell lymphoma) cells. The data set is described as follows: MTT antiproliferative assay, HuT78. It is filed as cell-based, human. The following applies: for GI50: Homo sapiens, HuT78, 72 h, MTT, mean ± SD of three independent experiments; for tumor selectivity index (SI) HuT78: with respect to MDCK1 cells. How it is done: as §3, §4, §5, §6, §7, §8, §9
The test system of data set [7] is normal (MDCK1) and tumor cell lines. As to the kind of experiment: MTT antiproliferative assay, ranges stated over several cell lines. It is filed as cell-based. How it is done:
as §3, §4, §5, §6, §7, §8, §9

Assay in data set [8]: as above
In kind it is cell-based. The settings on record: human (tumor cell lines) and dog (MDCK1); abstract, range over cell lines; read-out: GI50 range (strong cytotoxic activity). How it is done:
as §3, §4, §5, §6, §7, §8, §9

The test system of data set [9] is MCF-7 (human breast adenocarcinoma) cells. The data set is described as follows: MTT antiproliferative assay, MCF-7. It is filed as cell-based. The following applies: MCF7, 72 h, mean ± SD of three independent experiments. As for the experimental part: as §3, §4, §5, §6, §7, §8, §9
For data set [10], the system named is CCRF-CEM (human acute lymphoblastic leukemia) cells. As to the kind of experiment: MTT antiproliferative assay, CCRF-CEM. The following applies: for GI50: Homo sapiens, CCRF-CEM, 72 h, MTT, mean ± SD of three independent experiments. It is filed as cell-based. As for the experimental part:
as §3, §4, §5, §6, §7, §8, §9

For data set [11], the system named is THP-1 (acute monocytic leukemia) cells. The data set is described as follows: MTT antiproliferative assay, THP-1. It is filed as cell-based, human. The settings on record: for GI50: Homo sapiens, THP-1, 72 h, MTT, mean ± SD of three independent experiments, read-out: GI50 THP1. How it is done:
as §3, §4, §5, §6, §7, §8, §9

Data set [12] has as its system HuT78 cells. As to the kind of experiment: Annexin V-FITC/PI apoptosis detection. It is filed as cell-based, human. The settings on record: HuT78, 5 μM, 24 h. As for the experimental part:
The proapoptotic potential of compounds 5d and 12d was tested on the HuT78 cells using the Annexin V-FITC Apoptosis Staining/Detection Kit (ab14085; abcam, UK). The cells were plated in 6-well plates at a concentration of 5 × 10^5 cells/well and treated for 24 h with 12d at a concentration of 5 μM. After the incubation period, the cells were collected and centrifuged at 1100 rpm for 6 min, stained according to the manufacturer‘s protocol, and analyzed by flow cytometry (BD FACSCalibur, Becton Dickinson, San Jose, CA, USA) using FlowJo software (FlowJo, LLC, Ashland, OR, USA).

Data set [13] has as its system HuT78 cells. As to the kind of experiment: Mitochondrial membrane potential (∆Ψm), TMRE flow cytometry. In kind it is cell-based, human. The following applies: HuT78, 5 μM, 24 h. How it is done:
Changes in the (∆Ψm) were measured using TMRE (tetramethylrhodamine, ethyl ester and perchlorate) dye. In brief, the tested cells (HuT 78) were plated in 6-well plates at a concentration of 5 × 10^5 cells per well and treated with 5 μM of the compounds 5d and 12d. After 24 h of treatment, the cells were collected, centrifuged for 6 min at 1100 rpm, and stained with 200 nM of TMRE dye according to the kit protocol (TMRE Mitochondrial Membrane Potential Assay Kit, abcam, Cambridge, UK). The positive control cells were treated with 20 μM FCCP (carbonyl cyanide-p-trifluoromethoxyphenylhydrazone) for 10 min. The cells were analyzed by flow cytometry (BD FACSCalibur, Becton Dickinson, San Jose, CA, USA) and FlowJo software (FlowJo, LLC, Ashland, OR, USA).

For `Clc1ccc2c(N3CCN(c4ccc(-c5nc6ccccc6[nH]5)cc4)CC3)ccnc2c1` [Compound 8d, 4-(4-(4-(1H-benzo[d]imidazol-2-yl)phenyl)piperazin-1-yl)-7-chloroquinoline], the “changes in the cell cycle” value in the data set with THP-1 cells (vs non-treated cells) and with HuT78 cells [5] (vs non-treated cells) was “no significant changes” in each case. Further, the GI50 (in general, the concentration at which growth is held to half of that of the control) in data set [1] is more than 100 µM; in data set [2], 3.8 ± 0.5 µM; in [3], more than 100 µM; in data set [4] it was more than 100 µM; in [6], 8.1 ± 4.7 µM; in data set [7] (MDCK1 and carcinoma cell lines, read-out: GI50, normal and carcinoma cells), more than 100 µM. Further, the GI50 in data set [9] is more than 100 µM; in data set [10] it was 5 ± 2.6 µM; in data set [11], 3.2 ± 1.1 µM. For the same compound, the “tumor selectivity index (SI) Raji” value in data set [2] (with respect to MDCK1 cells) is reported as more than 26.3. Besides, the “tumor selectivity index (SI) HuT78” value in [6] is on record as more than 12.3. Further, the GI50 at 72 h in [8] lay within 0.4 to 8 µM. In addition, the “tumor selectivity index (SI) CCRF CEM” value in [10] (with respect to MDCK1 cells) is more than 20. In data set [11] (with respect to MDCK1 cells), the “tumor selectivity index (SI) THP1” value is more than 31.5.
As to `Clc1ccc2[nH]c(-c3ccc(N4CCN(c5ccnc6cc(Cl)ccc56)CC4)cc3)nc2c1` [Compound 8e, 7-chloro-4-(4-(4-(5-chloro-1H-benzo[d]imidazol-2-yl)phenyl)piperazin-1-yl)quinoline], the GI50 is 100 µM in data set [1]; 13.4 ± 2.6 µM in data set [2]; 2.7 ± 0.3 µM in [3]; more than 100 µM in data set [4]; 15.6 ± 9.8 µM in data set [6]; 13.4 to 41 µM in data set [7] (MDCK1, leukemia and lymphoma cell lines, read-out: GI50 range, leukemia and lymphoma cells). The concentration for 50% growth inhibition (GI50) came to 84 ± 7.7 µM in data set [9], 41 ± 0.5 µM in data set [10] and 22.3 ± 7.4 µM in data set [11].
Regarding `O=C(NCCNc1ccnc2cc(Cl)ccc12)c1ccc(-c2nc3ccccc3[nH]2)cc1` [Compound 12d, 4-(1H-benzo[d]imidazol-2-yl)-N-(2-(7-chloroquinolin-4-ylamino)ethyl)benzamide], the “changes in the other phases of the cell cycle (other than subG0/G1)” value in the data set with THP-1 cells is given as “not statistically significant”. Besides, the results for the “increase of cells in subG0/G1 phase” value in the data set on THP-1 cells (vs control) and with HuT78 cells [5] (vs control) were 3.4 times and 46 times, respectively. Besides, the concentration for 50% growth inhibition (GI50) was found to be 100 µM in data set [1]; 57.7 ± 23.8 µM in [2]; 100 µM in data set [3]; 16.4 ± 5.6 µM in data set [4]; 3.5 ± 1.5 µM in data set [6]; 20 ± 7.2 µM in data set [9]. Also, the GI50 in [10] came to 17.2 ± 7.7 µM; in [11] it was 4 ± 0.8 µM. The “cells in early apoptosis” value with HuT78 cells [12] came out at 3.97%. Moreover, the “cells in late stage of apoptosis/necrosis” value in the data set on HuT78 cells [12] amounted to 83.75%. In addition, the “proportion of polyploid giant cancer cells” value in the data set with HuT78 cells [5] was “increased proportion”. Further, the “decrease in G0/G1 phase” value in the data set on HuT78 cells [5] (vs non-treated cells) is listed as 63.8%. For the same compound, in data set [6], the “tumor selectivity index (SI) HuT78” value came to 28.5. In addition, the GI50 at 72 h in data set [8] lay in the range of 0.4 to 8 µM. In addition, in the data set with HuT78 cells [13], the “cells with mitochondrial membrane disruption / change in ∆Ψm” value is given as “more than 85%”.
